Experimental data reported in ChEMBL document CHEMBL1614632, “Trend analysis of a database of intravenous pharmacokinetic parameters in humans for 670 drug compounds” (Drug Metab Dispos, 2008).

Key:
[1] = clinical; settings: human, in vivo, iv
[2] = clinical; settings: human, in vivo, iv; remark: listed apart in the source
[3] = clinical; settings: human, in vivo, iv, t1/2
[4] = clinical; settings: human, in vivo, iv, CL
[5] = clinical; settings: human, in vivo, iv, Vdss

Compound | fraction unbound [1] | MRT [2] [h] | half-life [3] [h] | clearance [4] [mL/min/kg] | Vd [5] [L/kg]
CCC[C@H](N[C@@H](C)C(=O)N1[C@H](C(=O)O)C[C@@H]2CCCC[C@@H]21)C(=O)O [PERINDOPRILAT] | 0.16 | 7.6 | 29 | 1.7 | –
CC#CCC(C)[C@H](O)/C=C/[C@@H]1[C@H]2C/C(=C/CCCC(=O)O)C[C@H]2C[C@H]1O (some centres not stated) [ILOPROST] | 0.4 | – | 0.57 | 16 | 0.37
CC(=O)O[C@H]1C[C@@H]2CC[C@@H]3[C@H](CC[C@@]4(C)[C@H]3C[C@H]([N+]3(C)CCCCC3)[C@@H]4OC(C)=O)[C@@]2(C)C[C@@H]1[N+]1(C)CCCCC1 [PANCURONIUM] | 0.09 | 2.2 | 1.9 | – | 0.2
C[C@@H](O)[C@H]1C(=O)N2C(C(=O)O)=C(SCCOC(N)=O)S[C@H]12 [Sch-34343] | 0.35 | 0.67 | 0.8 | – | 0.3
N[C@@H](Cc1ccc(O)c(O)c1)C(=O)O [LEVODOPA] | 0.76 | 1.2 | 1.3 | – | –
C[C@H]1O[C@@H](O[C@H]2[C@@H](O)C[C@H](O[C@H]3[C@@H](O)C[C@H](O[C@H]4CC[C@@]5(C)[C@H](CC[C@@H]6[C@@H]5CC[C@]5(C)[C@@H](C7=CC(=O)OC7)CC[C@]65O)C4)O[C@@H]3C)O[C@@H]2C)C[C@H](O)[C@@H]1O [DIGITOXIN] | 0.066 | 170 | – | 0.043 | 0.44
CCOc1ccc(NC(C)=O)cc1 [PHENACETIN] | 0.47 | 1.1 | 0.92 | – | 1.4
O=C1CN(/N=C/c2ccc([N+](=O)[O-])o2)C(=O)N1 [NITROFURANTOIN] | 0.17 | 0.98 | 0.97 | – | 0.57
CC/C=C\C/C=C\C/C=C\C/C=C\C/C=C\C/C=C/CCC(=O)O[C@@H](C(=O)O[C@H]1C[C@@]2(O)[C@@H](OC(=O)c3ccccc3)C3[C@](C)(C(=O)[C@H](OC(C)=O)C(=C1C)C2(C)C)[C@@H](O)C[C@H]1OC[C@@]31OC(C)=O)[C@@H](NC(=O)c1ccccc1)c1ccccc1 (some centres not stated) [DHA PACLITAXEL] | 0.0038 | 45 | 60 | 0.025 | –
CC(C)(O/N=C(\C(=O)N[C@@H]1C(=O)N2C(C(=O)[O-])=C(C[n+]3ccccc3)CS[C@H]12)c1csc(N)n1)C(=O)O [CEFTAZIDIME] | 0.79 | 2.2 | – | 2.4 | 0.31
CCc1cccc2cc(C(O)CNC(C)(C)C)oc12 (configuration not stated) [BUFURALOL] | 0.19 | 3.18 | 2.3 | 8.9 | –
CCN(CC)CC#CCOC(=O)C(O)(c1ccccc1)C1CCCCC1 (configuration not stated) [OXYBUTYNIN] | 0.0034 | 2.7 | 7.2 | – | 0.85
N=C(N)c1ccc(C(=O)N[C@@H](Cc2ccc(O)cc2)C(=O)N2CCC(OCC(=O)O)CC2)cc1 [LAMIFIBAN] | 0.94 | 2.5 | 2.1 | – | –
CC[C@H](OC(C)=O)C(C[C@H](C)N(C)C)(c1ccccc1)c1ccccc1 [LEVOMETHADYL ACETATE] | 0.2 | 26 | – | 5.4 | 8.3
COC(=O)[C@H]1[C@@H](OC(=O)c2ccccc2)C[C@@H]2CC[C@H]1N2C [COCAINE] | 0.12 | 1 | 0.76 | – | –
CCCCC(=O)N(Cc1ccc(-c2ccccc2-c2nnn[nH]2)cc1)[C@H](C(=O)O)C(C)C | 0.04 | 7.5 | 9.5 | 0.49 | –
C[C@@H](c1ncncc1F)[C@](O)(Cn1cncn1)c1ccc(F)cc1F [VORICONAZOLE] | 0.42 | 4.4 | 5.6 | – | 2.2
Cc1cn([C@H]2C[C@H](N=[N+]=[N-])[C@@H](CO)O2)c(=O)[nH]c1=O [ZIDOVUDINE] | 0.8 | 1.2 | 1.3 | – | 1.8
NNC(=O)c1ccncc1 [ISONIAZID] | 1 | 1.8 | – | 7.4 | 0.82
CO[C@@]1(NC(=O)C2SC(=C(C(N)=O)C(=O)O)S2)C(=O)N2C(C(=O)O)=C(CSc3nnnn3C)CS[C@@H]21 (some centres not stated) [CEFOTETAN] | 0.15 | 5.2 | 4.5 | 0.42 | –
COc1ccc2c3c1O[C@H]1[C@@H](O)C=C[C@H]4[C@@H](C2)N(C)CC[C@@]341 [CODEINE] | 0.7 | 3.9 | 4 | 15 | –
CN[C@@H]1[C@@H](O)[C@@H](O[C@@H]2[C@@H](O)[C@H](O[C@H]3O[C@H](CN)[C@@H](O)[C@H](O)[C@H]3O)[C@@H](N)C[C@H]2NC(=O)[C@@H](O)CN)OC[C@]1(C)O [ISEPAMICIN] | 0.95 | 4.1 | 24 | 1.3 | –
Cc1onc(-c2c(F)cccc2Cl)c1C(=O)N[C@@H]1C(=O)N2[C@@H]1SC(C)(C)[C@@H]2C(=O)O [FLOXACILLIN] | 0.043 | 1.3 | – | 2.4 | 0.19
CC[C@@]1(O)C(=O)OCc2c1cc1n(c2=O)Cc2cc3c(CN(C)C)c(O)ccc3nc2-1 [TOPOTECAN] | 0.65 | – | – | – | –

Compound | fraction unbound [1] | MRT [2] [h] | half-life [3] [h] | clearance [4] [mL/min/kg] | Vd [5] [L/kg]
CC[C@H](C)C[C@H](C)CCCCCCCCC(=O)N[C@H]1C[C@@H](O)[C@@H](NCCN)NC(=O)[C@@H]2[C@@H](O)CCN2C(=O)[C@H]([C@H](O)CCN)NC(=O)[C@H]([C@H](O)[C@@H](O)c2ccc(O)cc2)NC(=O)[C@@H]2C[C@@H](O)CN2C(=O)[C@H]([C@@H](C)O)NC1=O [CASPOFUNGIN] | 0.035 | 15 | – | 0.14 | 0.13
CC(C)=CCN1CC[C@]2(C)c3cc(O)ccc3C[C@H]1[C@H]2C [(+)-PENTAZOCINE] | 0.39 | 2.5 | – | 23 | 3.4
C=CCN1CC[C@]23c4c5ccc(O)c4O[C@H]2C(=O)CC[C@@]3(O)[C@H]1C5 [NALOXONE] | 0.54 | 1.2 | 1.1 | – | 1.7
CCCC(=O)OCOC(=O)C1=C(C)NC(C)=C(C(=O)OC)C1c1cccc(Cl)c1Cl (configuration not stated) [CLEVIDIPINE] | 0.0038 | 0.07 | 0.3 | – | 0.58
CCN(C(C)=O)c1cccc(-c2ccnc3c(C#N)cnn23)c1 [ZALEPLON] | 0.4 | 1.4 | – | – | 1.3
CC(=O)Nc1c(I)c(NC(C)=O)c(I)c(C(=O)O)c1I [DIATRIZOIC ACID] | 1 | 2.6 | – | 1.7 | –
Nc1n[n+]([O-])c2ccccc2[n+]1[O-] [TIRAPAZAMINE] | 0.81 | 1 | – | 8.9 | 0.56
Nc1ccc(S(=O)(=O)c2ccc(N)cc2)cc1 [DAPSONE] | 0.25 | 29 | – | – | 0.83
COc1ccc2c3c1O[C@H]1C(=O)CC[C@@]4(O)[C@@H](C2)N(C)CC[C@]314 [OXYCODONE] | 0.55 | 6.8 | 5.5 | 6.1 | –
Cc1cccc(C)c1NC(=O)NCCCNC(C)C | 0.86 | 5.2 | 5 | 4.5 | –
NC(=O)c1ncn([C@@H]2O[C@H](CO)[C@@H](O)[C@H]2O)n1 [RIBAVIRIN] | 1 | 45 | 45 | 5.2 | –
N[C@@H](Cc1ccc(N(CCCl)CCCl)cc1)C(=O)O | 0.14 | 1.1 | – | 7 | 0.48
COc1ccc(Cl)cc1C(=O)NCCc1ccc(S(=O)(=O)NC(=O)NC2CCCCC2)cc1 [GLYBURIDE] | 0.021 | 1.6 | 2.2 | – | 0.08
C[C@]12C=CC(=O)C=C1CC[C@@H]1[C@@H]2[C@@H](O)C[C@@]2(C)[C@H]1CC[C@]2(O)C(=O)CO [PREDNISOLONE] | 0.25 | – | – | – | –
CN1CCc2cccc3c2[C@H]1Cc1ccc(O)c(O)c1-3 [APOMORPHINE] | 0.057 | – | – | 40 | 1.6
CN1CCCC(n2nc(Cc3ccc(Cl)cc3)c3ccccc3c2=O)CC1 (configuration not stated) [AZELASTINE] | 0.17 | 27 | 22 | 9 | –
CCCCCCCCCCNCCN[C@@]1(C)C[C@H](O[C@H]2[C@H](Oc3c4cc5cc3Oc3ccc(cc3Cl)[C@@H](O)[C@@H](NC(=O)[C@@H](CC(C)C)NC)C(=O)N[C@@H](CC(N)=O)C(=O)N[C@H]5C(=O)N[C@H]3C(=O)N[C@H](C(=O)N[C@H](C(=O)O)c5cc(O)c(CNCP(=O)(O)O)c(O)c5-c5cc3ccc5O)[C@H](O)c3ccc(c(Cl)c3)O4)O[C@H](CO)[C@@H](O)[C@@H]2O)O[C@@H](C)[C@H]1O [TELAVANCIN] | 0.07 | 9.2 | 6.7 | 0.2 | –
CC(CN1c2ccccc2Sc2ccccc21)N(C)C (configuration not stated) [PROMETHAZINE] | 0.09 | – | – | – | –
COc1ccc(-c2nc3ccc(C4=NNC(=O)CC4C)cc3[nH]2)cc1 (configuration not stated) [PIMOBENDAN] | 0.024 | 2.2 | 1.8 | – | 2.04
O=c1[nH]cc(F)c(=O)[nH]1 [FLUOROURACIL] | 0.64 | – | – | – | –
CN(C)CCCN1c2ccccc2CCc2ccccc21 [IMIPRAMINE] | 0.075 | – | – | – | 12
COCc1c(C(C)C)nc(C(C)C)c(/C=C/[C@@H](O)C[C@@H](O)CC(=O)O)c1-c1ccc(F)cc1 [CERIVASTATIN] | – | 1.8 | 1.8 | 2.9 | 0.33
CC(C)(C)[C@H](NC(=O)[C@H](CC1CCCC1)CN(O)C=O)C(=O)N1CCN(Cc2ccc3c(c2)OCO3)CC1 | – | 5.9 | 9.4 | 3.1 | 1.1
